Assay [1] is described as follows: DPPH free radical scavenging assay. Particulars: means ± SD (n = 3); amount needed to scavenge 50% of DPPH radicals. The procedure: Over-production and the accumulation of free radicals inside the body leads to a phenomenon known as oxidative stress, which causes many serious diseases such as cancer, cardiovascular, and inflammation. Moreover, the harmful effects of this phenomenon can be reduced via using antioxidant compounds as free radical scavengers. Therefore, free radical scavenging capabilities were determined for all compounds by 2,2-diphenyl-1-picrylhydrazyl (DPPH) assay using ascorbic acid (AA) as standard for comparison. The DPPH reducing capabilities of the synthetic analogs 6a–d were evaluated by determining their IC50 values. […] The IC50 value corresponds to the concentration of a sample, which has the ability to scavenge 50% of the free radicals present in the reaction mixture. Low IC50 values indicate that the compound in the sample has high antioxidant activity. […] At the same time, the analog 6c with pyrimidine moiety had the lowest antioxidant activity (9.2 × 10^−5 µM). […]
To 1 mL of various concentrations of ascorbic acid, neocryptolepine and indoloquinoline analogs prepared from methanol, 1 mL solution of DPPH, 0.1 mM was added. […] After 20 min incubation in the dark, absorbance was recorded at 517 nm. […] The percentage scavenging of the extract was calculated.
On the technique in general: The DPPH test is a chemical assay of radical scavenging.

For assay [2], the system named is solid-tumor (EAC) bearing mice (liver homogenate). The assay can be described thus: Lipid peroxidation and antioxidant enzymes in liver homogenate of solid-tumor bearing mice. Type of assay: in vivo, Swiss female albino mice. Particulars: 100 mg/kg for 5 days, liver. The procedure:
Measuring antioxidant enzyme levels and lipid peroxidation was utilized to evaluate the pharmacological effect of indoloquinoline derivatives. The study group was divided into two subgroups, normal mice and tumor-bearing mice. Each subgroup is further subdivided into two groups, one group received indoloquinoline derivatives, and the other group was marked as a placebo group.
After administration of indoloquinoline analogs 6a, 6b, 6c and 6d at a dose of 100 mg/kg for 5 constitutive days to mice with EAC, the levels of lipid peroxidation were highly significant less than that of the positive control group (p < 0.001). Meanwhile, the level of SOD in the liver homogenate of positive bearing mice was 32.1% (p < 0.001) less than that of the normal group (Table 5).
The eradicated liver was double washed first, with ice-cold normal saline then, with cold 0.15 mol/L Tris-HCl buffer (pH 7.4). The clean organ was dried and weighed, and used to prepare a 10% w/v homogenate in 0.15 mol/L Tris-HCl buffer. A portion of the prepared homogenate was centrifuged at 1500 rpm for 15 min at 4 °C [47] and used for estimating lipid peroxidation, SOD [48] and CAT [49] analysis was carried out using the supernatant.

The subject of assay [3] is Ehrlich ascites carcinoma (EAC) cells. As to the kind of experiment: In vitro cytotoxic activity, trypan blue dye exclusion. The assay is classed as cell-based, mice. Particulars: Mus musculus, Ehrlich, 3 h incubation at 37 °C. The procedure:
The synthesized indoloquinoline analogs 6a–d were evaluated for their cytotoxic activity against Ehrlich ascites carcinoma (EAC), as depicted in Table 1. The EAC cells used in this study were supplied by National Cancer Institute, Cairo, Egypt. The cells were maintained in vivo in Swiss Albino female mice by intraperitoneal transplantation (0.2 mL of 2 × 10^6 cells/mL). EAC cells were aspirated from the peritoneal cavity of mice, washed with saline and given intraperitoneally to develop ascites tumor. Trypan blue dye exclusion technique was used to figure the viability percentage of EAC cells to assay the cytotoxic activity of the studied compounds. In brief, under completely sterile conditions, EAC cells were separated away from the mice abdomens. Hank’s balanced salt solution (HBSS) was used to wash the separated cells. Cells were put in a cooling centrifuge at 1500 rpm for 15 min; the produced granules were put back into suspension using HBSS, the mentioned steps were done in triplicate. Finally, a measured volume of RPMI 1640 was used to suspend the cells, followed by the addition of 10% fetal bovine serum, 10 µg/mL streptomycin and 100 U/mL penicillin. Consequently, the cell count was adjusted to 2 × 10^6 cells/mL from the prepared diluted cell suspension 0.2 mL was titrated in 96 flat-bottomed tissue culture plates. Serial concentrations of each tested compound were prepared and added in triplicate and incubated at 37 °C for 3 h in a 5% CO2 atmosphere. The IC50 parameter (half-maximum inhibitory concentration) was calculated using Trypan blue dye exclusion test, and then the cytotoxic effect was evaluated using control EAC cells. Thalidomide was used as a reference drug alongside the parent natural compound neocryptolepine I for comparison. Thalidomide was used as a reference drug because its mechanism of action is expected to be similar to the mechanism of action of neocryptolepine analogs as its anticancer action may be based on its antiangiogenic action, resulting from specific DNA intercalation as well as induce cell cycle arrest.
The percentage of EAC cell death of the synthesized derivatives was evaluated by trypan blue exclusion assay. In addition, the compounds 6a–d, as well as the reference drug thalidomide and the parent natural compound neocryptolepine (I), were evaluated through eight concentration levels. It is worth noting that this cytotoxicity was dose-dependent when compared to the reference drug, thalidomide and the control, which was treated with the corresponding dilutions of DMSO.
As a preparation step to perform cytotoxicity assay against the EAC cell line, thalidomide, parent neocryptolepine and the indoloquinoline compounds a 6a, 6b, 6c and 6d were dissolved in DMSO/saline (0.3:0.7) to prepare a solution of 10 mmol concentration. The stock solutions were stored at 4 °C and were used all over the assay. EAC cells were supplied by the National Cancer Institute, Cairo, Egypt. The cells were maintained in vivo in Swiss albino female mice by intraperitoneal transplantation (0.2 mL of 2 × 10^6 cells/mL). EAC cells were aspirated from the peritoneal cavity of mice, washed with saline, and given intraperitoneally to develop ascites tumor.
Trypan blue dye exclusion technique was used to figure the viability percentage of EAC cells to assay the cytotoxic activity of the studied compounds. In brief, under completely sterile conditions, EAC cells were separated away from the mice’s abdomen. Hank’s balanced salt solution (HBSS) was used to wash the separated cells. The cells were put in a cooling centrifuge at 1500 rpm for 15 min; the produced granules were put back into suspension using HBSS, the mentioned steps were done in triplicate. Finally, a measured volume of RPMI 1640 was used to suspend the cells, followed by the addition of 10% fetal bovine serum, 10 µg/mL streptomycin and 100 U/mL penicillin and the cell count was adjusted to 2 × 10^6 cells/mL. […]

The subject of the next assay is MG-63 cells. Details: method as in PMID 18951804, PMID 2953123. Conditions: ref [34],[35]; cited from earlier work.
For the next assay, the system named is EAC-induced solid tumor. The assay can be described thus: Antitumor activity: reduction in tumor volume of EAC-induced solid tumor. Particulars: day 12 (last day of treatment), 100 mg/kg SC daily for five consecutive days. Type of assay: in vivo, Swiss female albino mice. How it is done: The aim of this study is to characterize indoloquinoline analogs 6a–d curative ability and antineoplastic activity on solid-form of Ehrlich tumors. Tumor volume is a potential biomarker for Ehrlich tumor development. The induction of solid tumor in Swiss female mice performed by inserting 0.2 mL of EAC cells (2 × 10^6 cell/mL) subcutaneously (SC) between thighs of the lower limb. When the tumor volume reached 15–20 mm^3 (Seven days after tumor induction), the mice were randomly divided into 6 groups (n = 10), five groups were injected subcutaneously with thalidomide and indoloquinoline analogs 6a–d (100 mg/kg) daily for five consecutive days, the sixth group (positive control group) were given DMSO/saline (0.3/0.7). The 8th day is considered the zero days of treatment. The tumor volume was daily measured with a vernier caliper for four days stated from day eight.
Thalidomide and indoloquinoline derivatives 6a–d were tested for their antitumor effect; the test was done in vivo on mice-bearing solid tumors. The induction of solid tumor in Swiss female mice performed by inserting 0.2 mL of EAC cells (2 × 10^6 cell/mL) subcutaneously (SC) between thighs of the lower limb. Seven days after tumor induction, animals were divided into 6 groups (n = 10), five groups were injected subcutaneously with 100 mg/kg of tested compounds daily for 5 consecutive days, the sixth group (positive control group) were given 0.3 DMSO/0.7 H2O. On day twelve, after carrying out EAC cells, mice were sacrificed, dissected, and change in tumor mass was evaluated by measuring the developed tumor mass volume using the formula [45, 46]:Tumor volume (mm^3) = 0.52 × length × (width)^2.(1)

We go through 3 compounds from PMC7867085, “In Vitro and In Vivo Antitumor Activity of Indolo[2,3-b] Quinolines, Natural Product Analogs from Neocryptolepine Alkaloid” (Molecules, 2021).

Each structure is given as a SMILES string.

In general, IC50 refers to the concentration at which inhibition is half-maximal. Low readings indicate higher potency, high ones lower potency. In assay [1], `O=C1O[C@H]([C@@H](O)CO)C(O)=C1O` [Ascorbic acid, ascorbic acid] displayed an IC50 of 0.042 nM.
Turning to `O=C1CCC(N2C(=O)c3ccccc3C2=O)C(=O)N1` (centres unmarked) [Thalidomide, reference compound], in assay [2], the CAT was 5.8 ± 1.5 KU/mg Tissue/s, the “Lipid Peroxidation” value is reported as 330.2 ± 8.1 nmol MDA/g Tissue and the SOD was 108.4 ± 10.2 U/g Tissue. Half-maximal inhibition in assay [3] (IC50) was put at 0.26 nM. The “effect on cell cycle” value in the assay on MG-63 cells was “induced cell cycle arrest by increasing the number of cells in the G0/G1 phase and decreasing the percentage of S phase”. Further, in the assay with EAC-induced solid tumor, the “reduction percentage in tumor volume” value is on record as 67.20%.
With `Cn1c2nc3ccccc3c-2cc2ccccc21` [Neocryptolepine, 5-methyl-5H-indolo[2,3-b] quinoline], in assay [3], the IC50 was determined as 0.54 nM.
